Where two headings read alike, the source gives them in different places.

The values below come from patent publication EP4644383A1 (Jiangsu Yahong Meditech Co., Ltd., priority 2022, dated 2024).

Assay [1] concerns the target T1, FGFR4 (Homo sapiens, UniProt P22455).
T1 construct: FGFR4's cytoplasmic domain [460-802 (terminal) amino acids]; purchased Carna 08-136
Briefly: FGFR4 kinase activity inhibition assay (LanthaScreen TR-FRET). The assay is classed as biochemical. The gist of the method:
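GST-tagged cytoplasmic domains (FGFR2 aa 399-821; FGFR4 aa 460-802) were preincubated 10 min at 23 °C with compound (top 1 µM, threefold dilutions). Then 28 nM fluorescein-poly GT and 28 µM ATP were added for 30 min at 23 °C in HEPES pH 7.5 buffer. Tb-PY20 TR-FRET 520/495 ratio gave % inhibition versus DMSO and no-enzyme controls.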
(In TR-FRET formats the signal depends on donor and acceptor labels being close together.)

Assay [2] deals with RT112 cells (bladder cancer cells). Briefly: Inhibition of proliferation activity of RT112 cells (CellTiter-Glo). As to conditions: Homo sapiens, read-out: IC50 (nM) RT112. The class given is cell-based. Here is the method:
The present experiment used CellTiter-Glo® Luminescent Cell Viability Assay (Promega: G7573) kit, which was a homogeneous cell viability detection method and determined the cell viability of cultured cells by quantifying ATP. • ① RT112 cells were cultured in MEM complete medium (Gibco: 51200038) (10% FBS (Gibco: 10091-148)+1% Pen Strep (Gibco: 15140122)+1% NEAA (Gibco: 11140050)) under the condition of 37°C and 5% CO2. • (2) The cells in logarithmic growth phase were harvested and counted using a […]. The trypan blue exclusion method was used to detect cell viability to ensure the cell viability was above 90%. • ③ The cell density was adjusted using MEM complete medium, and then, the cells were seeded into a 96-well cell culture plate at 90 µL/well with a total of 3000 cells. • ④ The 96-well plate with the cells was placed under the condition of 37°C and 5% CO2 to be cultured for 24 hours. • ⑤ 24 hours later, a 10-fold drug solution was prepared starting from a maximum drug concentration of 10 µM and 4-fold serially diluted into10 concentrations. Then, 10 µL of each of the serially diluted compounds was transferred to the corresponding experimental wells of a 96-well cell plate, with two replicates for each drug concentration. • ⑥ The 96-well plate with the cells that had been treated with the drugs was placed under the condition of 37°C and 5% CO2 to be further cultured for 72 hours, and then analyzed by CTG. • ⑦ The CTG reagent was melted and the cell plate was equilibrated to room temperature for 30 minutes. • ⑧ 50 µL of the CTG solution was added to each well. • ⑨ The cell plate was shaken on an orbital shaker for 5 minutes to lyse the cells. • ⑩ The cell plate was placed at room temperature for 20 minutes to stabilize the luminescence signal. The luminescence values were read to collect the data. • ⑪ The data were analyzed using XLFit excel plugin version 5.5.0.5, and fitted with non-linear S-curve regression to obtain the dose-response curves and thus calculate the IC50 values. Y = Bottom + (Top-Bottom)/((1+(IC50/X))^(∧) HillSlope [formula]
"Top" refers to the maximum response, "Bottom" refers to the minimum response, and "HillSlope" refers to the slope of the curve.
"Max" represents the average value of the cell+DMSO control, and "Min" represents the average value of the medium control+DMSO.
On the technique in general: In ATP-based viability assays light output follows the ATP content of the culture.

Assay [3] deals with T2, FGFR3 (Homo sapiens, UniProt P22607).
T2 construct: FGFR3's cytoplasmic domain [436-806 (terminal) amino acids]; purchased Carna 08-135
Briefly: FGFR3 kinase activity inhibition assay (LanthaScreen TR-FRET). The class given is biochemical. As to conditions: for Selectivity (X) FGFR1/FGFR3: ratio of IC50 FGFR1/FGFR3, selectivity towards FGFR3; for Selectivity (X) FGFR2/FGFR3: ratio of IC50 FGFR2/FGFR3, selectivity towards FGFR3; for Selectivity (X) FGFR4/FGFR3: ratio of IC50 FGFR4/FGFR3, selectivity towards FGFR3. The method, boiled down:
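Read-out is TR-FRET, with the 520 nm/495 nm emission ratio normalised to DMSO (max) and enzyme-free (min) controls. Enzyme was the FGFR3 cytoplasmic domain, residues 436-806. EDTA (10 mM) stopped the reaction, followed by 60 min at 22 °C before reading.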

[4] abbreviates: FGFR4 kinase, TR-FRET, read-out: IC50 (nM) FGFR4.
Setting [5] is: FGFR3 kinase, TR-FRET, read-out: IC50 (nM) FGFR3.
The mark [6] stands for this setting: RT-112, RT112 cells, 72 hours, CTG.

T1 sequence (P22455 460-802): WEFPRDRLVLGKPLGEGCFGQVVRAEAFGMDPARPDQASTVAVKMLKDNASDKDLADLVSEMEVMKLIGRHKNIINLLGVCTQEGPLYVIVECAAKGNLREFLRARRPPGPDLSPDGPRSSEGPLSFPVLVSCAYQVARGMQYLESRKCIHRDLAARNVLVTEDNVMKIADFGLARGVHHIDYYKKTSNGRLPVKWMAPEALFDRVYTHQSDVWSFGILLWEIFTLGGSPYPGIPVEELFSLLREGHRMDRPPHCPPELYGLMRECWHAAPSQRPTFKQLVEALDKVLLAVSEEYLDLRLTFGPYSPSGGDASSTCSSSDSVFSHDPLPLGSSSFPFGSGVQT
T2 sequence (P22607 436-806): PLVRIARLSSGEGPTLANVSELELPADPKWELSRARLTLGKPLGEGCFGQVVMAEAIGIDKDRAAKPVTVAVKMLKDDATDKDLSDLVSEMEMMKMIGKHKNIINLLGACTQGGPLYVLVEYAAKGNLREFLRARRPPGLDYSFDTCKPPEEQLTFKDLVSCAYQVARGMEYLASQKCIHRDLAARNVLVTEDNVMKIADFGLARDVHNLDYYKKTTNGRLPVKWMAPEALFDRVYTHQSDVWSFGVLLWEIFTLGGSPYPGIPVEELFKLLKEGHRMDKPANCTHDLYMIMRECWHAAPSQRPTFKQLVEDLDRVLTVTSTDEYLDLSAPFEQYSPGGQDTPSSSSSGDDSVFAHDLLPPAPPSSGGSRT

As usually defined, the IC50 is the concentration that gives 50% inhibition. On to `C[C@@H](Oc1ccc2[nH]nc(-c3ccc(S(C)(=N)=O)nc3)c2c1)c1c(Cl)cncc1Cl` (stereo partly drawn) [Comparative Example 85, (5-(5-((R)-1-(3,5-dichloropyridin-4-yl)ethoxy)-1H-indazol-3-yl)pyridin-2-yl)(imino)(methyl)-sulfanone, reference compound], for which the IC50 in assay [1] (setting [4]) is 10 to 100 nM; in assay [2] (RT-112, 72 h), 58.8 nM.
With `C[C@@H](Oc1cc(F)c2[nH]nc(-c3cnn(CCN4CCOCC4)c3)c2c1)c1c(Cl)cncc1Cl` [Example 12, (R)-4-(2-(4-(5-(1-(3,5-dichloropyridin-4-yl)ethoxy)-7-fluoro-1H-indazol-3-yl)-1H-pyrazol-1-yl)ethyl)morph oline], in assay [3] (setting [5]), the half-maximal inhibitory concentration (IC50) was 1 to 10 nM. Also, in assay [3], the “Selectivity (X) FGFR1/FGFR3” value is reported as “B (B represents 20 ≤ multiple X<50)”, the “Selectivity (X) FGFR2/FGFR3” value is reported as “A (A represents 1 ≤ multiple X<20)” and the “Selectivity (X) FGFR4/FGFR3” value is listed as “C (C represents 50 ≤ multiple X<100)”. For the same compound, the half-maximal inhibitory concentration (IC50) in assay [1] (setting [4]) fell in the range of 10 to 100 nM. Also, the IC50 in assay [2] (setting [6]) was 43.1 nM.
As for `C[C@@H](Oc1ccc2[nH]nc(-c3cnn(C)c3)c2n1)c1c(Cl)cncc1Cl` [Example 29, (R)-5-(1-(3,5-dichloropyridin-4-yl)ethoxy)-3-(1-methyl-1H-pyrazol-4-yl)-1H-pyrazolo[4,3-b]pyridine], the IC50 in assay [3] (setting [5]) was less than 1 nM. Besides, in assay [3], the “Selectivity (X) FGFR1/FGFR3” value is “A (A represents 1 ≤ multiple X<20)”, the “Selectivity (X) FGFR2/FGFR3” value is “A (A represents 1 ≤ multiple X<20)” and the “Selectivity (X) FGFR4/FGFR3” value was “A (A represents 1 ≤ multiple X<20)”. The half-inhibitory concentration (IC50) in assay [1] (setting [4]) fell in the range of 1 to 10 nM. Besides, the 50% inhibitory concentration (IC50) in assay [2] (setting [6]) was 3.6 nM.
As to `C[C@@H](Oc1ccc2[nH]nc(-c3cnn(CCN4CCN(C)C(=O)C4)c3)c2n1)c1c(Cl)cncc1Cl` [Example 54, (R)-4-(2-(4-(5-(1-(3,5-dichloropyridin-4-yl)ethoxy)-1H-pyrazolo[4,3-b]pyridin-3-yl)-1H-pyrazol-1-yl)ethyl)-1-methylpiperazin-2-one], the values for the IC50 in assay [3] (setting [5]) and in assay [2] (setting [6]) were less than 1 nM and 14 nM, respectively. The “Selectivity (X) FGFR1/FGFR3” value in assay [3] is given as “A (A represents 1 ≤ multiple X<20)”.
In the case of `C[C@@H](Oc1ccc2[nH]nc(-c3cnn(CCN4CCS(=O)(=O)CC4)c3)c2n1)c1c(Cl)cncc1Cl` [Example 55, (R)-4-(2-(4-(5-(1-(3,5-dichloropyridin-4-yl)ethoxy)-1H-pyrazolo[4,3-b]pyridin-3-yl)-1H-pyrazol-1-yl)ethyl)thiomorph oline 1,1-dioxide], the IC50 in assay [3] (setting [5]) is less than 1 nM; in assay [2] (setting [6]), 15.9 nM. In addition, in assay [3], the “Selectivity (X) FGFR1/FGFR3” value is “A (A represents 1 ≤ multiple X<20)”.
Turning to `CC(Oc1ccc2[nH]nc(-c3cnn(C)c3)c2c1)c1cccc2ncccc12` (stereo not shown) [Example 88, 5-(1-((3-(1-methyl-1H-pyrazol-4-yl)-1H-indazol-5-yl)oxy)ethyl)quin oline], the figures for the half-maximal inhibitory concentration (IC50) in assay [3] (setting [5]), in assay [1] (setting [4]) and in assay [2] (setting [6]) were 1 to 10 nM, 10 to 100 nM and 167 nM, respectively. Also, the “Selectivity (X) FGFR1/FGFR3” value in assay [3] is “A (A represents 1 ≤ multiple X<20)”. The “Selectivity (X) FGFR2/FGFR3” value in assay [3] is “A (A represents 1 ≤ multiple X<20)”. The “Selectivity (X) FGFR4/FGFR3” value in assay [3] was “C (C represents 50 ≤ multiple X<100)”.
In the case of `CC(Oc1ccc2[nH]nc(-c3cnn(C)c3)c2c1)c1cccc2nccnc12` (stereo not shown) [Example 92, 5-(1-((3-(1-methyl-1H-pyrazol-4-yl)-1H-indazol-5-yl)oxy)ethyl)quin oxaline], in assay [3] (setting [5]), the IC50 is less than 1 nM. Besides, in assay [3], the “Selectivity (X) FGFR1/FGFR3” value is listed as “A (A represents 1 ≤ multiple X<20)”, the “Selectivity (X) FGFR2/FGFR3” value is listed as “A (A represents 1 ≤ multiple X<20)” and the “Selectivity (X) FGFR4/FGFR3” value is listed as “A (A represents 1 ≤ multiple X<20)”. The IC50 in assay [1] (setting [4]) was in the range of 1 to 10 nM. The IC50 in assay [2] (setting [6]) stood at 24.3 nM.
As to `Cc1ccc2ncccc2c1C(C)Oc1ccc2[nH]nc(-c3cnn(C)c3)c2c1` (stereo not shown) [Example 95, 6-methyl-5-(1-((3-(1-methyl-1H-pyrazol-4-yl)-1H-indazol-5-yl)oxy)ethyl)quinolinee], in assay [3], the IC50 was 1 to 10 nM, the “Selectivity (X) FGFR1/FGFR3” value was “C (C represents 50 ≤ multiple X<100)”, the “Selectivity (X) FGFR2/FGFR3” value was “A (A represents 1 ≤ multiple X<20)” and the “Selectivity (X) FGFR4/FGFR3” value was “C (C represents 50 ≤ multiple X<100)”. In assay [1], the concentration for half-maximal inhibition (IC50) lay in the range of 10 to 100 nM. In addition, the IC50 in assay [2] (setting [6]) is 23.4 nM.
`CC(Oc1ccc2[nH]nc(-c3cnn(C)c3)c2c1)c1cccn2ncnc12` (stereo not shown) [Example 101, 8-(1-((3-(1-methyl-1H-pyrazol-4-yl)-1H-indazol-5-yl)oxy)ethyl)-[1,2,4]triazolo[1,5-a]pyridine]: the concentration for half-maximal inhibition (IC50) is 1 to 10 nM in assay [3] (setting [5]) and 85 nM in assay [2] (setting [6]). Moreover, the “Selectivity (X) FGFR1/FGFR3” value in assay [3] is “A (A represents 1 ≤ multiple X<20)”.
Regarding `CC(Oc1ccc2[nH]nc(-c3cnn(C)c3)c2c1)c1c(C(F)F)ccc2ncccc12` (stereo not shown) [Example 127, 6-(difluoromethyl)-5-(1-((3-(1-methyl-1H-pyrazol-4-yl)-1H-indazol-5-yl)oxy)ethyl)quinoline], the IC50 was less than 1 nM in assay [3] (setting [5]), more than 100 nM in assay [1] (setting [4]) and 25.5 nM in assay [2] (setting [6]). Besides, the “Selectivity (X) FGFR1/FGFR3” value in assay [3] is recorded as “C (C represents 50 ≤ multiple X<100)”. Moreover, the “Selectivity (X) FGFR2/FGFR3” value in assay [3] is listed as “A (A represents 1 ≤ multiple X<20)”. Moreover, the “Selectivity (X) FGFR4/FGFR3” value in assay [3] was “C (C represents 50 ≤ multiple X<100)”.
Consider `CC(Oc1ccc2[nH]nc(-c3cnn(C)c3)c2c1)c1c(CF)ccc2ncccc12` (stereo not shown) [Example 130, 6-(fluoromethyl)-5-(1-((3-(1-methyl-1H-pyrazol-4-yl)-1H-indazol-5-yl)oxy)ethyl)q uinoline], for which the results for the 50% inhibitory concentration (IC50) in assay [1] (setting [4]) and in assay [2] (setting [6]) were 10 to 100 nM and 37.9 nM, respectively.
In the case of `CC(Oc1ccc2[nH]nc(-c3cnn(C)c3)c2c1)c1cc(Cl)cc2nccnc12` (stereo not shown) [Example 136, 7-chloro-5-(1-((3-(1-methyl-1H-pyrazol-4-yl)-1H-indazol-5-yl)oxy)ethyl)qu inoxaline], in assay [3] (setting [5]), the IC50 was less than 1 nM. Besides, in assay [3], the “Selectivity (X) FGFR1/FGFR3” value is given as “B (B represents 20 ≤ multiple X<50)”, the “Selectivity (X) FGFR2/FGFR3” value is on record as “A (A represents 1 ≤ multiple X<20)” and the “Selectivity (X) FGFR4/FGFR3” value is “C (C represents 50 ≤ multiple X<100)”. In addition, the concentration for half-maximal inhibition (IC50) in assay [1] (setting [4]) is 10 to 100 nM. Moreover, the half-inhibitory concentration (IC50) in assay [2] (setting [6]) stood at 47.5 nM.
For `Cc1cc2nccnc2c(C(C)Oc2ccc3[nH]nc(-c4cnn(C)c4)c3c2)n1` (stereo not shown) [Example 183, 7-methyl-5-(1-((3-(1-methyl-1H-pyrazol-4-yl)-1H-indazol-5-yl)oxy)ethyl)pyridino [3,4-b]pyrazine], the concentration for half-maximal inhibition (IC50) was less than 1 nM in assay [3] (setting [5]), 10 to 100 nM in assay [1] (setting [4]) and 9.7 nM in assay [2] (setting [6]). In addition, in assay [3], the “Selectivity (X) FGFR1/FGFR3” value was “B (B represents 20 ≤ multiple X<50)”. The “Selectivity (X) FGFR2/FGFR3” value in assay [3] is on record as “A (A represents 1 ≤ multiple X<20)”. Besides, the “Selectivity (X) FGFR4/FGFR3” value in assay [3] is recorded as “B (B represents 20 ≤ multiple X<50)”.
Consider `CC(Oc1cc2c(-c3cnn(C)c3)n[nH]c2cc1F)c1cc(Cl)cc2nccnc12` (stereo not shown) [Example 227, 7-chloro-5-(1-((6-fluoro-3-(1-methyl-1H-pyrazol-4-yl)-1H-indazol-5-yl)oxy)ethyl)qu inoxaline], for which the figures for the IC50 in assay [3] (setting [5]) and in assay [2] (setting [6]) were less than 1 nM and 34.5 nM, respectively. In assay [3], the “Selectivity (X) FGFR1/FGFR3” value is recorded as “A (A represents 1 ≤ multiple X<20)”.
